Source: ChEMBL document CHEMBL3758179, “Baicalin Alleviates Silica-Induced Lung Inflammation and Fibrosis by Inhibiting the Th17 Response in C57BL/6 Mice” (2015)
The source made the active and inactive calls. The calls are words filed in the database; no cut-off is given here.

Key:
Mus musculus [1] = test: Inhibition of Th17 response in spleen in silica-induced C57BL/6 mouse lung inflammation and fibrosis model assessed as decrease in level of CD4+T cells coexpressing IL-17A at 2 mg, ip administered every day measured on day 56 by flow cytometric analysis (reference value: 0.6 +/- 0.03%); assay type: functional, CD4+T cell
Mus musculus [2] = test: Antiinflammatory activity in C57BL/6 mouse silicosis model assessed as reduction in silica-induced accumulation of neutrophils in bronchoalveolar lavage fluid at 2 mg, ip administered every day measured on day 7 by Giemsa staining method; assay type: functional, organism-based
Mus musculus [3] = test: Antiinflammatory activity in C57BL/6 mouse silicosis model assessed as silica-induced accumulation of lymphocytes in bronchoalveolar lavage fluid at 2 mg, ip administered every day measured on day 7,28 and 56 by Giemsa staining method; assay type: functional, organism-based
Mus musculus [4] = test: Induction of Treg response in silica-induced C57BL/6 mouse lung inflammation and fibrosis model assessed as increase in level of CD4+T cells coexpressing Foxp3 in spleen at 2 mg, ip administered every day measured on day 7 by flow cytometric analysis (reference value: 11.75 +/- 1.03%); assay type: functional, CD4+T cell
Mus musculus [5] = test: Inhibition of Th1 response in silica-induced C57BL/6 mouse lung inflammation and fibrosis model assessed as decrease in IFN-gamma mRNA expression in spleen at 2 mg, ip administered every day measured on day 7, 28 by real time RT-PCR method relative to silica-treated control; assay type: functional, organism-based
Mus musculus [6] = test: Induction of Treg response in silica-induced C57BL/6 mouse lung inflammation and fibrosis model assessed as increase in Foxp3 mRNA expression in spleen at 2 mg, ip administered every day measured on day 7, 28 by real time RT-PCR method relative to silica-treated control; assay type: functional, organism-based
Mus musculus [7] = test: Induction of Treg response in silica-induced C57BL/6 mouse lung inflammation and fibrosis model assessed as increase in level of CD4+T cells coexpressing Foxp3 in hilar lymph node at 2 mg, ip administered every day measured on day 56 by flow cytometric analysis (reference value: 8.76 +/- 0.23%); assay type: functional, CD4+T cell
Mus musculus [8] = test: Induction of Treg response in silica-induced C57BL/6 mouse lung inflammation and fibrosis model assessed as increase in level of CD4+T cells coexpressing Foxp3 in spleen at 2 mg, ip administered every day measured on day 28 by flow cytometric analysis (reference value: 10.88 +/- 0.55 %); assay type: functional, CD4+T cell
Mus musculus [9] = test: Antiinflammatory activity in C57BL/6 mouse silicosis model assessed as silica-induced accumulation of macrophages in bronchoalveolar lavage fluid at 2 mg, ip administered every day measured on day 7,28 and 56 by Giemsa staining method; assay type: functional, organism-based
Mus musculus [10] = test: Induction of Treg response in silica-induced C57BL/6 mouse lung inflammation and fibrosis model assessed as increase in level of CD4+T cells coexpressing Foxp3 in spleen at 2 mg, ip administered every day measured on day 56 by flow cytometric analysis (reference value: 10 +/- 0.53 %); assay type: functional, CD4+T cell
Mus musculus [11] = test: (§1) Inhibition of Th17 cell differentiation in silica-induced C57BL/6 mouse lung inflammation and fibrosis model assessed as decrease in IL-6 mRNA expression in lung at 2 mg, ip administered every day measured on day 7 by real time RT-PCR method relative to silica-treated control; assay type: functional, organism-based
Mus musculus [12] = test: Induction of Treg response in silica-induced C57BL/6 mouse lung inflammation and fibrosis model assessed as increase in Foxp3 mRNA expression in lung at 2 mg, ip administered every day measured on day 28, 56 by real time RT-PCR method relative to silica-treated control; assay type: functional, organism-based
Mus musculus [13] = test: Inhibition of Th17 cell differentiation in silica-induced C57BL/6 mouse lung inflammation and fibrosis model assessed as increase in IL-23 mRNA expression in lung at 2 mg, ip administered every day measured on day 28, 56 by real time RT-PCR method relative to silica-treated control; assay type: functional, organism-based
Mus musculus [14] = test: Antiinflammatory activity in C57BL/6 mouse silicosis model assessed as reduction in inflammatory cell infiltration at 2 mg, ip administered every day measured on day 7,28 and 56 by haematoxylin and eosin staining-based light microscopic analysis relative to silica-treated control; assay type: functional, organism-based
Mus musculus [15] = test: Inhibition of Th1 response in silica-induced C57BL/6 mouse lung inflammation and fibrosis model assessed as decrease in level of CD4+T cells coexpressing IFNgamma at 2 mg, ip administered every day measured on day 7 by flow cytometric analysis; assay type: functional, organism-based; details: CD4+T cell
Mus musculus [16] = test: Antiinflammatory activity in C57BL/6 mouse silicosis model assessed as reduction in silica-induced accumulation of total cells in bronchoalveolar lavage fluid at 2 mg, ip administered every day measured on day 7,28 and 56 by Giemsa staining method; assay type: functional, organism-based
Mus musculus [17] = test: as §1, with “IL-6 protein level” for “IL-6 mRNA expression”, “in bronchoalveolar lavage fluid” for “in lung”, “by cytometric bead array” for “by real time RT-PCR”; assay type: functional, organism-based
Mus musculus [18] = test: Inhibition of silica-induced lung fibrosis in C57BL/6 mouse silicosis model at 2 mg, ip administered every day measured on day 28 to 56 by Masson staining-based light microscopic analysis; assay type: functional, organism-based
Mus musculus [19] = test: Induction of Treg response in silica-induced C57BL/6 mouse lung inflammation and fibrosis model assessed as increase in IL-10 mRNA expression in lung at 2 mg, ip administered every day measured on day 7, 28 by real time RT-PCR method relative to silica-treated control; assay type: functional, organism-based
Mus musculus [20] = test: Inhibition of Th2 response in silica-induced C57BL/6 mouse lung inflammation and fibrosis model assessed as decrease in IL-4 level in bronchoalveolar lavage fluid at 2 mg, ip administered every day measured on day 7, 28, 56 by cytometric bead array method relative to silica-treated control; assay type: functional, organism-based
Mus musculus [21] = test: Inhibition of Th17 response in hilar lymph node in silica-induced C57BL/6 mouse lung inflammation and fibrosis model assessed as decrease in level of CD4+T cells coexpressing IL-17A at 2 mg, ip administered every day measured on day 28 by flow cytometric analysis (reference value: 0.76 +/- 0.07%); assay type: functional, CD4+T cell
Mus musculus [22] = test: Induction of Treg response in silica-induced C57BL/6 mouse lung inflammation and fibrosis model assessed as increase in level of CD4+T cells coexpressing Foxp3 in hilar lymph node at 2 mg, ip administered every day measured on day 28 by flow cytometric analysis (reference value: 8.18 +/- 0.61%); assay type: functional, CD4+T cell
Mus musculus [23] = test: Inhibition of Th17 response in spleen in silica-induced C57BL/6 mouse lung inflammation and fibrosis model assessed as decrease in level of CD4+T cells coexpressing IL-17A at 2 mg, ip administered every day measured on day 7 by flow cytometric analysis (reference value: 0.9 +/- 0.11%); assay type: functional, CD4+T cell
Mus musculus [24] = test: Inhibition of Th17 cell differentiation in silica-induced C57BL/6 mouse lung inflammation and fibrosis model assessed as increase in IL-23 mRNA expression in lung at 2 mg, ip administered every day measured on day 7 by real time RT-PCR method relative to silica-treated control; assay type: functional, organism-based
Mus musculus [25] = test: Inhibition of Th17 response in hilar lymph node in silica-induced C57BL/6 mouse lung inflammation and fibrosis model assessed as decrease in level of CD4+T cells coexpressing IL-17A at 2 mg, ip administered every day measured on day 7 by flow cytometric analysis (reference value: 1.08 +/- 0.07%); assay type: functional, CD4+T cell
Mus musculus [26] = test: Inhibition of Th2 response in silica-induced C57BL/6 mouse lung inflammation and fibrosis model assessed as decrease in GATA-3 mRNA expression in lung at 2 mg, ip administered every day measured on day 7, 56 by real time RT-PCR method relative to silica-treated control; assay type: functional, organism-based
Mus musculus [27] = test: Inhibition of Th17 response in silica-induced C57BL/6 mouse lung inflammation and fibrosis model assessed as decrease in RORgammat mRNA expression in spleen at 2 mg, ip administered every day measured on day 7, 28, 56 by real time RT-PCR method relative to silica-treated control; assay type: functional, organism-based
Mus musculus [28] = test: Inhibition of Th17 response in spleen in silica-induced C57BL/6 mouse lung inflammation and fibrosis model assessed as decrease in level of CD4+T cells coexpressing IL-17A at 2 mg, ip administered every day measured on day 28 by flow cytometric analysis (reference value: 0.68 +/- 0.07%); assay type: functional, CD4+T cell
Mus musculus [29] = test: Induction of Treg response in silica-induced C57BL/6 mouse lung inflammation and fibrosis model assessed as increase in TGF-beta mRNA expression at 2 mg, ip administered every day measured on day 7 by real time RT-PCR method relative to silica-treated control; assay type: functional, organism-based
Mus musculus [30] = test: Inhibition of Th1 response in silica-induced C57BL/6 mouse lung inflammation and fibrosis model assessed as decrease in TNFalpha mRNA expression in bronchoalveolar lavage fluid at 2 mg, ip administered every day measured on day 7 by real time RT-PCR method; assay type: functional, organism-based
Mus musculus [31] = test: Inhibition of Th1 response in silica-induced C57BL/6 mouse lung inflammation and fibrosis model assessed as decrease in IFN-gamma mRNA expression in lung at 2 mg, ip administered every day measured on day 7 by real time RT-PCR method relative to silica-treated control; assay type: functional, organism-based
Mus musculus [32] = test: Antiinflammatory activity in C57BL/6 mouse silicosis model assessed as reduction in alveolar wall change at 2 mg, ip administered every day measured on day 7,28 and 56 by haematoxylin and eosin staining-based light microscopic analysis relative to silica-treated control; assay type: functional, organism-based
Mus musculus [33] = test: Inhibition of Th17 cell differentiation in silica-induced C57BL/6 mouse lung inflammation and fibrosis model assessed as decrease in IL-6 protein level in bronchoalveolar lavage fluid at 2 mg, ip administered every day measured on day 28 to 56 by cytometric bead array method; assay type: functional, organism-based
Mus musculus [34] = test: Inhibition of Th17 response in silica-induced C57BL/6 mouse lung inflammation and fibrosis model assessed as decrease in IL-17A mRNA expression in lung at 2 mg, ip administered every day measured on day 7 by real time RT-PCR method relative to silica-treated control; assay type: functional, organism-based
Mus musculus [35] = test: Inhibition of Th17 cell differentiation in silica-induced C57BL/6 mouse lung inflammation and fibrosis model assessed as decrease in IL-6 mRNA expression in lung at 2 mg, ip administered every day measured on day 28, 56 by real time RT-PCR method relative to silica-treated control; assay type: functional, organism-based
Mus musculus [36] = test: Induction of Treg response in silica-induced C57BL/6 mouse lung inflammation and fibrosis model assessed as increase in level of CD4+T cells coexpressing Foxp3 in hilar lymph node at 2 mg, ip administered every day measured on day 7 by flow cytometric analysis (reference value: 12.14 +/- 0.53%); assay type: functional, CD4+T cell

Compound: O=C(O)[C@H]1O[C@@H](Oc2cc3oc(-c4ccccc4)cc(=O)c3c(O)c2O)[C@H](O)[C@@H](O)[C@@H]1O [BAICALIN]
- IL-17A+ CD4+ T cells (Mus musculus [1]): 0.4%
- Activity (Mus musculus [2]): Active
- Activity (Mus musculus [3]): Active
- Activity (Mus musculus [4]): 17.4%
- inhibition (Mus musculus [5]): Active
- Activity (Mus musculus [6]): Active
- Activity (Mus musculus [7]): 10.3%
- Activity (Mus musculus [8]): 14.34%
- Activity (Mus musculus [9]): inactive
- Activity (Mus musculus [10]): 11.76%
- inhibition (Mus musculus [11]): Active
- Activity (Mus musculus [12]): Active
- inhibition (Mus musculus [13]): Active
- Activity (Mus musculus [14]): Active
- inhibition (Mus musculus [15]): Active
- Activity (Mus musculus [16]): Active
- inhibition (Mus musculus [17]): Active
- inhibition (Mus musculus [18]): Active
- Activity (Mus musculus [19]): Active
- inhibition (Mus musculus [20]): Active
- IL-17A+ CD4+ T cells (Mus musculus [21]): 0.5%
- Activity (Mus musculus [22]): 13.72%
- IL-17A+ CD4+ T cells (Mus musculus [23]): 0.42%
- inhibition (Mus musculus [24]): inactive
- IL-17A+ CD4+ T cells (Mus musculus [25]): 0.46%
- inhibition (Mus musculus [26]): Active
- inhibition (Mus musculus [27]): Active
- IL-17A+ CD4+ T cells (Mus musculus [28]): 0.42%
- Activity (Mus musculus [29]): Active
- inhibition (Mus musculus [30]): Active
- inhibition (Mus musculus [31]): Active
- Activity (Mus musculus [32]): Active
- inhibition (Mus musculus [33]): inactive
- inhibition (Mus musculus [34]): Active
- inhibition (Mus musculus [35]): inactive
- Activity (Mus musculus [36]): 15.92%
